Test results published in patent publication US12576018B2, “Active agents for skin and hair care with sensory modifying properties” (SYMRISE AG, priority 2019, dated 2026).

System: skin
Assay: Sensory assessment of 1 wt.-% 3-hydroxypropyl undecylenate in o/w emulsion versus placebo
Assay type: in vivo, human
Settings: 1 wt.-% in o/w emulsion vs placebo without active
Protocol: Heat phase A and C separately up to 80° C. Disperse phase B in phase A. Add phase C to phase AB and emulsify using a HomoRex stirrer (3 min, […]). Add phase D and neutralize. Allow to cool by using a vane stirrer (10 min at 150 rpm, then 10 min at 100 rpm). Pre-dissolve 3-hydroxypropyl undecylenate with pentylene glycol and propylene glycol (phase E) and add to the emulsion by using a vane stirrer (10 min, 100 rpm). Sensory Assessment: Test design (for two samples; presented in random order) 100 μl of sample was applied on the forearm. Sample was distributed with index and middle finger in rotary movements for 20 seconds. Then the second sample is applied on the other forearm and again distributed. After 3 minutes the skin feel is evaluated. Question to the panellists: Which formulation (A or B) leaves the skin more soft and moisturized on a scale from 0-4? (Soft/moisture: 0=not at all; 4=very strong)

## C=CCCCCCCCCC(=O)OCCCO [3-hydroxypropyl undecylenate]
  Soft and moisturized skin feel versus placebo (in words): more soft and moisturized skin feel
